“Also recorded” adds a separate entry of the source. Where no end group is shown, it is not given here.
What was measured:
[1] = test system: Staphylococcus aureus ATCC 25923; type: cell-based
From the text: (§1) All tests were done in triplicate.

[2] = test system: Bacillus cereus ATCC 11778; type: cell-based
From the text: as §1

[3] = test system: Pseudomonas aeruginosa ATCC 27853; type: cell-based
From the text: as §1

[4] = test system: Listeria monocytogenes 10403s; type: cell-based; conditions: 10403s
From the text: as §1

[5] = test system: Staphylococcus epidermidis ATCC 12228; type: cell-based
From the text: as §1

[6] = test system: Acinetobactero baumanii MT strain; type: cell-based
From the text: as §1

S. Typhimurium H1-001 = conditions: checkerboard, TSB, 37 °C, 24 h
Method: (§2) Effects of the combination of A11 with nisin against S. Typhimurium ATCC 13311 and 10 drug-resistant S. Typhimurium and S. enterica isolates were determined by the checkerboard titration method. Briefly, 10 drug-resistant S. Typhimurium were grown to a concentration of 1 × 10^7 CFU/ml in fresh TSB. Aliquots (25 µl) of nisin (final concentrations of 0.5–16 mg/ml) and A11 (final concentrations of 0.98–250 µg/ml) were added into 96-well plates containing 50 µl of bacterial suspension and cultured at 37 °C. […] ICA is the concentration required to produce the same effect as compound A when used alone, ICB is the concentration required to produce the same effect as compound B when used alone. The CI results were interpreted as follows: a CI of less than 1 indicates synergistic effect, a CI equal to 1 indicates additive effect, and a CI of more than 1 indicates antagonistic effect.

4,5,12:i:- H2-039 = conditions: checkerboard, TSB, 37 °C, 24 h
Method: as §2

S. Typhimurium H1-062 = conditions: checkerboard, TSB, 37 °C, 24 h
Method: as §2

S. Typhimurium ATCC13311 = conditions: checkerboard, TSB, 37 °C, 24 h
Method: as §2

4,5,12:i:- H1-100 [7] = conditions: checkerboard, TSB, 37 °C, 24 h
Method: as §2

S. Typhimurium H1-041 = conditions: checkerboard, TSB, 37 °C, 24 h
Method: as §2

S. Typhimurium H1-006 = conditions: checkerboard, TSB, 37 °C, 24 h
Method: as §2

S. Typhimurium H1-011 = conditions: checkerboard, TSB, 37 °C, 24 h
Method: as §2

4,5,12:i:- H2-089 [8] = conditions: checkerboard, TSB, 37 °C, 24 h
Method: as §2

S. Typhimurium H1-015 = conditions: checkerboard, TSB, 37 °C, 24 h
Method: as §2

4,5,12:i:- H2-042 = conditions: checkerboard, TSB, 37 °C, 24 h
Method: as §2

[9] = test system: S. Typhimurium ATCC 13311; type: cell-based, Salmonella enterica serovar Typhimurium; conditions: ATCC 13311, 24 h
Method: Two-fold serial dilutions (0.98–250 μg/ml) of A11 with various concentrations of MgCl2 and NaCl (1 mM MgCl2, 5 mM MgCl2, 1% NaCl, 3% NaCl, 5% NaCl and 10% NaCl) were prepared and incubated at 37 °C for 60 min. Then, 50 μl of A11 in different salt concentrations were incubated with 50 μl of S. Typhimurium ATCC 13311 suspension (approximately 1 × 10^7 CFU/ml) at 37 °C with shaking. After 24 h, MICs were determined; all experiments were done in triplicate.

4,5,12:i:- H2-010 = type: cell-based, Salmonella enterica 4,5,12:i:-; conditions: strain H2-010
From the text: as §1

4,5,12:i:- H2-047 = type: cell-based, Salmonella enterica 4,5,12:i:-; conditions: strain H2-047
From the text: as §1

4,5,12:i:- H1-100 [10] = type: cell-based, Salmonella enterica 4,5,12:i:-; conditions: strain H1-100
From the text: as §1

4,5,12:i:- H1-024 = type: cell-based, Salmonella enterica 4,5,12:i:-; conditions: strain H1-024
From the text: as §1

4,5,12:i:- H2-089 [11] = type: cell-based, Salmonella enterica 4,5,12:i:-; conditions: strain H2-089
From the text: as §1

4,5,12:i:- H2-049 = type: cell-based, Salmonella enterica 4,5,12:i:-; conditions: strain H2-049
From the text: as §1

[12] = test system: L929 mouse fibroblast cells; assay: In vitro cytotoxicity, MTT assay; type: cell-based; conditions: 0.98–250 µg/ml, 24 h
Method: The cytotoxicity of A11 was evaluated by the 3-(4,5 dimethylthiazol-2-yl)-2,5-diphenyltetrazolium bromide (MTT) assay. L929 mouse fibroblast cells were cultured in Dulbecco's Modified Eagle Medium (DMEM) supplemented with 1% (v/v) of 100 IU/ml penicillin/streptomycin and 10% (v/v) fetal bovine serum (FBS). The cells were maintained in an air atmosphere containing the 5% CO2 under high humidity at 37 °C. L929 cell lines were seeded into a sterile 96-well plate (1 × 10^4 cells/well) then incubated overnight and treated with different concentrations of A11 (0.98–250 µg/ml) for 24 h. Media were removed, and cultured cells were incubated with 100 µl of MTT solution (4 mg/ml) for 4 h at 37 °C. After removal of MTT solution, the formed formazan was dissolved in 100 µl DMSO. Absorbance was measured by microplate reader at 570 nm; untreated cells served as negative control and melittin-treated cells as a positive control. Cell viability was determined following this equation: Cell viability%=ODTreated/ODControl×100

## WVKKVARKVVKIGRKVAR-NH2 [A11]
[1]; ATCC 25923, 18 h
  MBC: > 250 (> 250) µg/ml
[1]; ATCC 25923, 24 h
  MIC: > 250 (> 250) µg/ml
[2]; ATCC 11778, 18 h
  MBC: 250 (250) µg/ml
[2]; ATCC 11778, 24 h
  MIC: 250 (250) µg/ml
[3]; ATCC 27853, 18 h
  MBC: 62.5 µg/mL
[3]; ATCC 27853, 24 h
  MIC: 31.25 µg/mL
[4]; 18 h
  MBC: 125 (125) µg/ml
[4]; 24 h
  MIC: 125 (125) µg/ml
[5]; ATCC 12228, 18 h
  MBC: 31.25 µg/mL
[5]; ATCC 12228, 24 h
  MIC: 15.63 µg/mL
[6]; 18 h
  MBC: 31.25 µg/mL
[6]; 24 h
  MIC: 15.63 µg/mL
S. Typhimurium H1-001
  MIC (alone): 62.5 µg/mL
4,5,12:i:- H2-039
  MIC (alone): 62.5 µg/mL
S. Typhimurium H1-062
  MIC (alone): 125 µg/mL
S. Typhimurium ATCC13311
  MIC (alone): 15.63 µg/mL
4,5,12:i:- H1-100 [7]
  MIC (alone): 62.5 µg/mL
S. Typhimurium H1-041
  MIC (alone): 125 µg/mL
S. Typhimurium H1-006
  MIC (alone): 125 µg/mL
S. Typhimurium H1-011
  MIC (alone): 62.5 µg/mL
4,5,12:i:- H2-089 [8]
  MIC (alone): 62.5 µg/mL
S. Typhimurium H1-015
  MIC (alone): 62.5 µg/mL
4,5,12:i:- H2-042
  MIC (alone): 62.5 µg/mL
[9]
  MIC in 1 mM MgCl2: 15.63 µg/mL
  MIC in 5 mM MgCl2: 31.25 µg/mL
  MIC in 1% NaCl: 15.63 µg/mL
  MIC in 3% NaCl: 125 µg/mL
  MIC in 5% NaCl: 250 µg/mL
  MIC in 10% NaCl: > 250 µg/mL
4,5,12:i:- H2-010
  MBC: 62.5 (62.5) µg/ml
  MIC: 62.5 (62.5) µg/ml
4,5,12:i:- H2-047
  MBC: 125 µg/mL
  MIC: 62.5 µg/mL
4,5,12:i:- H1-100 [10]
  MBC: 62.5 (62.5) µg/ml
  MIC: 62.5 (62.5) µg/ml
4,5,12:i:- H1-024
  MBC: 62.5 (62.5) µg/ml
  MIC: 62.5 (62.5) µg/ml
4,5,12:i:- H2-089 [11]
  MBC: 125 µg/mL
  MIC: 62.5 µg/mL
4,5,12:i:- H2-049
  MBC: 125 µg/mL
  MIC: 62.5 µg/mL
[12]
  cytotoxicity toward L929 cells (cell viability, MTT): no cytotoxic activity; also recorded: no cytotoxic effect

From article PMC9981719, “A novel designed membrane-active peptide for the control of foodborne Salmonella enterica serovar Typhimurium” (Scientific Reports, 2023)
